Test results published in patent US20230302150A1, “ANTIBODY-TLR AGONIST CONJUGATES, METHODS AND USES THEREOF” (Ambrx, Inc., priority 2020, published 2023).
Like-named read-outs stand apart in the source and are kept apart here. Each block holds one compound with its values, some of them ahead of it.

Target: T1, hTLR7 (Homo sapiens, UniProt Q9NYK1)
T1 construct: expressed in transfected cells; host or cells: HEK-Blue hTLR7 reporter cell line
T1 sequence (Q9NYK1 27-1049): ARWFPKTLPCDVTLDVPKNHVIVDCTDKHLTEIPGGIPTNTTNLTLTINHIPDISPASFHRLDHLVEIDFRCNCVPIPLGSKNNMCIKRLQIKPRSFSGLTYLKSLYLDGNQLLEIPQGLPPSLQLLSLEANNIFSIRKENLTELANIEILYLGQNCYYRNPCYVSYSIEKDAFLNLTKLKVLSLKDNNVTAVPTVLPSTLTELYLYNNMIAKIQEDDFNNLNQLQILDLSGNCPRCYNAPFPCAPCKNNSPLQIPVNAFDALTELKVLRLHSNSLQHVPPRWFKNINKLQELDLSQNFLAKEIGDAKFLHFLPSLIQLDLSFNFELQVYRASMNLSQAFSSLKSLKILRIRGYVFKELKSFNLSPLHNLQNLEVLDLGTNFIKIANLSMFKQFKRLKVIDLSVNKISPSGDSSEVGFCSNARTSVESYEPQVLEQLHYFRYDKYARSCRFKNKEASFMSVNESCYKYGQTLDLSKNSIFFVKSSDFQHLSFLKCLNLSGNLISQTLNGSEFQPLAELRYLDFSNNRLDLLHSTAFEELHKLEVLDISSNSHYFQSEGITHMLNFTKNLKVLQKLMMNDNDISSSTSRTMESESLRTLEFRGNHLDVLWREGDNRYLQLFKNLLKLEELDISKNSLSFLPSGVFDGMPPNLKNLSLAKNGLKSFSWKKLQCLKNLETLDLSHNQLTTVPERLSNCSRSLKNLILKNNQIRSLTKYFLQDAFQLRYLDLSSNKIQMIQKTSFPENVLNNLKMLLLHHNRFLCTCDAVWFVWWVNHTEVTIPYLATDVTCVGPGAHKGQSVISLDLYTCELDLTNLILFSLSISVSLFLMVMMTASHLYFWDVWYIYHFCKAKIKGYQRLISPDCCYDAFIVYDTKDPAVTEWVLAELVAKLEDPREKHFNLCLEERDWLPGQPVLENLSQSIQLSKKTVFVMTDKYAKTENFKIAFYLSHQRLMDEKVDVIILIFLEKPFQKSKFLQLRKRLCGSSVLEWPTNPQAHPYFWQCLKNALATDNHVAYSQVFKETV
Assay: HEK-Blue hTLR7 reporter assay (NF-kB-induced SEAP, Quanti-Blue)
Format: cell-based
Method: HEK-Blue™ hTLR7 cells were incubated in HEK-Blue™ Detection medium and stimulated with increasing concentrations of TLR7 or TLR8 or TLR7/8 agonists. […] The EC50 was determined from dose-response curve using Prism Software.

[1] = Table 12, TLR7 agonists attached to a linker, read-out: TLR Agonist Payload + Linkers EC50
[2] = Table 15, drug linker, read-out: TLR Agonist + Linker (DL) - EC50
[3] = Table 15, pAF containing final metabolite, read-out: TLR Agonist + Linker + nnAA (DL-pAF) - EC50
[4] = Table 19, TLR7, drug-linkers with PEG shielding, read-out: EC50

EC50 [1]: 829 nM
EC50 [2]: 829 nM
EC50 [3]: 283 nM
Compound: CCCCNc1nc(N)c2[nH]c(=O)n(Cc3ccc(N4CCN(CCNC(=O)CON)CC4)nc3)c2n1 [AXC-867]

EC50 [1]: 400 nM
EC50 [2]: 400 nM
EC50 [3]: 121 nM
Compound: CCCCOc1nc(N)c2[nH]c(=O)n(Cc3ccc(CNC(=O)CON)cc3)c2n1 [AXC-862]

EC50 (Table 14, read-out: TLR7 EC50): 120 nM
Compound: CCCCCNc1nc(N)nc2ccn(Cc3cc(CN4CCN(CCCNC(=O)CON)CC4)ccc3OC)c12 [AXC-860, reference compound]

Compound: CCCCOc1nc(NC(C)=O)c2[nH]c(=O)n(Cc3ccc(CN4CCC(CCNC(=O)CON)CC4)cc3)c2n1 [AXC-966, N-(2-(1-(4-((6-acetamido-2-butoxy-8-oxo-7,8-dihydro-9H-purin-9-yl)methyl)benzyl)piperidin-4-yl)ethyl)-2-(aminooxy)acetamide]
EC50 [4]: 65.5 nM

Compound: CCCCOc1nc(N)c2[nH]c(=O)n(Cc3ccc(CN4CCC(CCNC(=O)[C@@H](CCCCN)NC(=O)CON)CC4)cc3)c2n1 [AXC-958, (R)-6-amino-N-(2-(1-(4-((6-amino-2-butoxy-8-oxo-7,8-dihydro-9H-purin-9-yl)methyl)benzyl)piperidin-4-yl)ethyl)-2-(2-(aminooxy)acetamido)hexanamide]
EC50 [4]: 39.6 nM

Compound: CCCCOc1nc(N)c2[nH]c(=O)n(Cc3ccc(CN4CCC(CCNC(=O)[C@@H](CCCCNC(=O)CCCC(=O)NCCOCCOCCOCCOCCC(=O)NC(COCCC(=O)NCCOCCOCCOCCOCCOCCOCCOCCOC)(COCCC(=O)NCCOCCOCCOCCOCCOCCOCCOCCOC)COCCC(=O)NCCOCCOCCOCCOCCOCCOCCOCCOC)NC(=O)CON)CC4)cc3)c2n1 [AXC-961, (R)-N1-(6-((2-(1-(4-((6-amino-2-butoxy-8-oxo-7,8-dihydro-9H-purin-9-yl)methyl)benzyl)piperidin-4-yl)ethyl)amino)-5-(2-(aminooxy)acetamido)-6-oxohexyl)-N5-(dPEG4)-(mPEG8)3-glutaramide]
EC50 [4]: 856 nM

Compound: CCCCOc1nc(NC(=O)CCOCCOCCOC)c2[nH]c(=O)n(Cc3ccc(CN4CCC(CCNC(=O)CON)CC4)cc3)c2n1 [AXC-983, N-(9-(4-((4-(2-(2-(aminooxy)acetamido)ethyl)piperidin-1-yl)methyl)benzyl)-2-butoxy-8-oxo-8,9-dihydro-7H-purin-6-yl)-3-(2-(2-methoxyethoxy)ethoxy)propanamide]
EC50 [4]: 53.3 nM

EC50 (Core 3 compounds, assay not given, read-out: EC50): > 10000 nM
Compound: NCCC1CCN(Cc2ccc(Cn3ccc4c5nc(N)ncc5ccc43)cc2)CC1 [AXC-969, 7-(4-((4-(2-aminoethyl)piperidin-1-yl)methyl)benzyl)-7H-pyrrolo[2,3-h]quinazolin-2-amine]

Compound: CCCCOc1nc(N)c2[nH]c(=O)n(Cc3ccc(CN4CCC(CCNC(=O)[C@H](CCCCNC(=O)CON)NC(=O)OCc5ccc(NC(=O)[C@H](C)NC(=O)[C@@H](NC(C)=O)C(C)C)cc5)CC4)cc3)c2n1 [AXC-926, 4-((S)-2-((S)-2-acetamido-3-methylbutanamido)propanamido)benzyl ((S)-1-((2-(1-(4-((6-amino-2-butoxy-8-oxo-7,8-dihydro-9H-purin-9-yl)methyl)benzyl)piperidin-4-yl)ethyl)amino)-6-(2-(aminooxy)acetamido)-1-oxohexan-2-yl)carbamate]
EC50 (Table 18, TLR7, PEG shielding, read-out: EC50): 824 nM

Compound: CCCCOc1nc(N)c2[nH]c(=O)n(Cc3ccc(CN4CCC(CCNC(=O)[C@H](CCCCNC(=O)CON)NC(=O)CCCC(=O)NCCOCCOCCOCCOCCOCCOCCOCCOCCOCCOCCOCCOCCOCCOCCOCCOCCOCCOCCOCCOCCOCCOCCOCCOCCOCCOCCOCCOCCOCCOCCOCCOCCOCCOCCOCCOCCOCCOCCOCCOCCOCCOCCOCCOCCOCCOCCOCCOC)CC4)cc3)c2n1 [AXC-936, (S)-N1-(1-((2-(1-(4-((6-amino-2-butoxy-8-oxo-7,8-dihydro-9H-purin-9-yl)methyl)benzyl)piperidin-4-yl)ethyl)amino)-6-(2-(aminooxy)acetamido)-1-oxohexan-2-yl)-N5-(PEG48)-glutaramide]
EC50 [4]: 764 nM

Compound: CCCCOc1nc(NC(C)=O)c2[nH]c(=O)n(Cc3ccc(CN4CCC(CCON)CC4)cc3)c2n1 [AXC-978, N-(9-(4-((4-(2-(aminooxy)ethyl)piperidin-1-yl)methyl)benzyl)-2-butoxy-8-oxo-8,9-dihydro-7H-purin-6-yl)acetamide]
EC50 [4]: 28.9 nM

Compound: CCCCOc1nc(N)c2[nH]c(=O)n(Cc3ccc(CN4CCC(CCNC(=O)[C@H](Cc5ccc(OP(=O)(O)O)cc5)NC(=O)CON)CC4)cc3)c2n1 [AXC-960, (S)-4-(3-((2-(1-(4-((6-amino-2-butoxy-8-oxo-7,8-dihydro-9H-purin-9-yl)methyl)benzyl)piperidin-4-yl)ethyl)amino)-2-(2-(aminooxy)acetamido)-3-oxopropyl)phenyl dihydrogen phosphate]
EC50 [4]: 267 nM

EC50 (Table 14, read-out: TLR7 EC50): 2590 nM
Compound: CCCCc1nc2c(N)nc3ccccc3c2n1CCCCNC(=O)CON [AXC-910, reference compound]

Compound: CCCCOc1nc(N)c2[nH]c(=O)n(Cc3ccc(CN4CCC(CCNC(=O)CCN5C(=O)C=CC5=O)CC4)cc3)c2n1 [AXC-955, N-(2-(1-(4-((6-amino-2-butoxy-8-oxo-7,8-dihydro-9H-purin-9-yl)methyl)benzyl)piperidin-4-yl)ethyl)-3-(2,5-dioxo-2,5-dihydro-1H-pyrrol-1-yl)propanamide]
EC50 [4]: 173 nM

EC50 (Table 10, read-out: TLR7 EC50): 910 nM
Compound: CCCCc1nc2c(N)nc3ccccc3c2n1CCCCNC(=O)c1ccc(N2CCCC2)cc1 [AXC-777, N-(4-(4-amino-2-butyl-1H-imidazo[4,5-c]quinolin-1-yl)butyl)-4-(pyrrolidin-1-yl)benzamide]

Compound: CCCCOc1nc(N)c2[nH]c(=O)n(Cc3ccc(CN4CCC(CCNC(=O)[C@H](CCCCNC(=O)CCCC(=O)NCCOCCOCCOCCOCCC(=O)NC(COCCC(=O)NCCOCCOCCOCCOCCOCCOCCOCCOC)(COCCC(=O)NCCOCCOCCOCCOCCOCCOCCOCCOC)COCCC(=O)NCCOCCOCCOCCOCCOCCOCCOCCOC)NC(=O)CON)CC4)cc3)c2n1 [AXC-952, (S)—N-(2-(1-(4-((6-amino-2-butoxy-8-oxo-7,8-dihydro-9H-purin-9-yl)methyl)benzyl)piperidin-4-yl)ethyl)-2-(2-(aminooxy)acetamido)-6-(dPEG4-(m-dPEG8)3)hexanamide]
EC50 [4]: 1020 nM

EC50 (Table 10, read-out: TLR7 EC50): 28.2 nM
Compound: CCc1nc2c(N)nc3ccccc3c2n1CCCCNC(=O)/C=C/c1ccc(N(C)C)cc1 [AXC-739, (E)-N-(4-(4-amino-2-ethyl-1H-imidazo[4,5-c]quinolin-1-yl)butyl)-3-(4-(dimethylamino)phenyl)acrylamide]

Compound: CCCCOc1nc(N)c2[nH]c(=O)n(Cc3ccc(CN4CCC(CCN(CC(C)C)C(=O)CCOCCON)CC4)cc3)c2n1 [AXC-893, N-(2-(1-(4-((6-amino-2-butoxy-8-oxo-7H-purin-9(8H)-yl)methyl)benzyl)piperidin-4-yl)ethyl)-3-(2-(aminooxy)ethoxy)-N-isobutylpropanamide]
EC50 (Table 13, TLR7, read-out: EC50): 3120 nM

EC50 (Table 10, read-out: TLR7 EC50): 332 nM
Compound: CCCCc1nc2c(N)nc3ccccc3c2n1CCCCNC(=O)c1cccc(N)c1 [AXC-803, 3-amino-N-(4-(4-amino-2-butyl-1H-imidazo[4,5-c]quinolin-1-yl)butyl)benzamide]

Compound: CCCCOc1nc(N)c2[nH]c(=O)n(Cc3ccc(CN4CCC(c5ccc(N)cc5)CC4)cc3)c2n1 [AXC-908, 6-amino-9-(4-((4-(4-aminophenyl)piperidin-1-yl)methyl)benzyl)-2-butoxy-7H-purin-8(9H)-one]
EC50 (Table 14, read-out: TLR7 EC50): 11.5 nM

Compound: CCCCOc1nc(N)c2[nH]c(=O)n(Cc3ccc(CN4CCC(C5CCNCC5)CC4)cc3)c2n1 [AXC-898, 9-(4-(4,4′-bipiperidin-1-ylmethyl)benzyl)-6-amino-2-butoxy-7H-purin-8(9H)-oneone]
EC50 (Table 13, TLR7, read-out: EC50): 50 nM
